For one assay, the system named is MCP-1. Briefly: LPS-activated cytokine release from human primary monocytes (xMAP Luminex): MCP-1. It counts as cell-based. How it is done:
(§1) Cytokine release from monocytes was measured and assessed in order to determine the anti-inflammatory effects of cetylated fatty acids such as 1-TDC and non-cetylated fatty acids such as myristic acid. Human primary monocytes were provided by healthy subjects (n=7) who were not taking medication, had no medical condition, and no periodontal or gingival inflammation. None of the subjects were smokers and all subjects were of Caucasian origin with an age range of 24-51 years old. All patient samples were obtained after the approval of the Institutional Review Board at Boston University Medical Center.
(§2) Fresh peripheral venous blood ([…]) was obtained by venipuncture into heparinized (10 U/mL) glass tubes. Monocytes were isolated using Ficoll-Hypaque density gradient centrifugation and separated from the other mononuclear cells (e.g., lymphocytes) by adherence for over 2 hours. Pure cell cultures were treated with various doses (10^−5-10^−9 M) of various types of fatty acids such as 1-TDC and myristic acid for 30 minutes. Vehicle (5% ethyl alcohol), which was used to dissolve the compound into an aqueous preparation, was used as the negative control while dexamethasone (1 nM) was used as the positive control. After incubation with the test compound, half of the samples were treated with LPS from E. coli (100 ng/mL) as the activator of cell cytokine release over various time points (24 hours) at 37° C. under 5% CO2. Supernatants were collected and stored at −80° C. until analyzed. Each sample was prepared in triplicate. Cytokine release (IL-1β, TNF-α, IL-6, IL-12, IL-8, and MCP-1) was analyzed by xMAP multiplexing technology using Luminex 100 Platform. Data was presented as % inhibition over the vehicle's effect of LPS-mediated cell activation. Dexamethasone inhibition was taken as 100% inhibition.
(§3) Cytokine release data were gathered at 6, 24, and 48 hour time points for monocyte/macrophages (FIGS. 3-5). Each experiment was repeated at least 3 times and data was presented as percentage of inhibition over the vehicle's effect of LPS-mediated cell activation.

The next assay has as its system IL-8. Briefly: LPS-activated cytokine release from human primary monocytes (xMAP Luminex): IL-8. It counts as cell-based. To be noted: 24 hours. How it is done: as §1
(§4) Fresh peripheral venous blood ([…]) was obtained by venipuncture into heparinized (10 U/mL) glass tubes. Monocytes were isolated using Ficoll-Hypaque density gradient centrifugation and separated from the other mononuclear cells (e.g., lymphocytes) by adherence for over 2 hours. Pure cell cultures were treated with various doses (10^−5-10^−9 M) of various types of fatty acids such as 1-TDC and myristic acid for 30 minutes. […] Supernatants were collected and stored at −80° C. until analyzed. […] Cytokine release (IL-1β, TNF-α, IL-6, IL-12, IL-8, and MCP-1) was analyzed by xMAP multiplexing technology using Luminex 100 Platform. […]

A further assay concerns TNF-α. Nature of the assay: LPS-activated cytokine release from human primary monocytes (xMAP Luminex): TNF-α. The format is cell-based. How it is done:
as §1, §2, §3

A further assay relates to IL-5. Nature of the assay: CD3/CD28-activated cytokine release from human primary T-lymphocytes: IL-5. It counts as cell-based. To be noted: 24 and 48 hours; FIG. 11. How it is done: (§5) Cytokine release from T-lymphocytes was measured and assessed in order to determine the anti-inflammatory effects of cetylated fatty acids such as 1-TDC and uncetylated fatty acids such as myristic acid. More specifically, the following compounds were tested: 1-TDC, 2-TDC, cetyl myristate (CM), myristic acid (MA), palmityl myristate (PM), palmityl oleate (PO), and palmityl myristoleate (PMO). For this experiment, peripheral blood mononuclear cells were isolated from healthy donors (n=8) with no known medication use by Ficoll-Hypaque density gradient centrifugation. Primary T-lymphocytes were separated from other mononuclear cells (e.g., monocytes) by negative selection using magnetic cell sorting (Dynal, Invitrogen) and pure cell cultures were treated with various doses of tested compounds for 30 minutes. The tested doses were 10^−5-10^−9M. […] Supernatants were collected at 24 and 48 hours and were stored at −80° C. until analyzed. […] The cytokine release was analyzed by xMAP multiplexing technology using Luminex 100 platform. […] The following T-lymphocyte associated cytokines: IFN-γ, IL-2, IL-10, IL-5, and IL-4 were assessed. […] While the validity of this shift is questioned in different diseases and/or infections, the central role of T cells in the progression of inflammation is still evaluated on the cytokine release by these subsets of lymphocytes. […]

In the next assay the test system is IFN-γ. Nature of the assay: CD3/CD28-activated cytokine release from human primary T-lymphocytes: IFN-γ. It counts as cell-based. Conditions: FIG. 7. How it is done: Cytokine release from T-lymphocytes was measured and assessed in order to determine the anti-inflammatory effects of cetylated fatty acids such as 1-TDC and uncetylated fatty acids such as myristic acid. More specifically, the following compounds were tested: 1-TDC, 2-TDC, cetyl myristate (CM), myristic acid (MA), palmityl myristate (PM), palmityl oleate (PO), and palmityl myristoleate (PMO). For this experiment, peripheral blood mononuclear cells were isolated from healthy donors (n=8) with no known medication use by Ficoll-Hypaque density gradient centrifugation. Primary T-lymphocytes were separated from other mononuclear cells (e.g., monocytes) by negative selection using magnetic cell sorting (Dynal, Invitrogen) and pure cell cultures were treated with various doses of tested compounds for 30 minutes. The tested doses were 10^−5-10^−9M. Vehicle, which was used to dissolve the compounds into an aqueous preparation, was used as the negative control while dexamethasone (1 nM) was used as the positive control. After the incubation with test compounds, half the samples were treated with DynaBeads (Dynal, Invitrogen) coated with CD3 and CD28 antibodies as the activator of cell cytokine release. Cells were incubated over various time points at 37° C. under 5% CO2. Supernatants were collected at 24 and 48 hours and were stored at −80° C. until analyzed. Each sample was prepared in triplicates. The cytokine release was analyzed by xMAP multiplexing technology using Luminex 100 platform. This method allowed simultaneous analyses of all the cytokines proposed in this experiment. The following T-lymphocyte associated cytokines: IFN-γ, IL-2, IL-10, IL-5, and IL-4 were assessed. […] A paradigm shift between the cytokines by Th1 and Th2 indicates a more or less inflammatory process depending on which of these cytokines are increased. While the validity of this shift is questioned in different diseases and/or infections, the central role of T cells in the progression of inflammation is still evaluated on the cytokine release by these subsets of lymphocytes. Data was gathered throughout 24- and 48-hour time points for T-lymphocyte mediated release. Each experiment was repeated at least 3 times and data was presented as %-inhibition over the vehicle's effect of LPS-mediated cell activation.

A further assay has as its system IL-10. Briefly: CD3/CD28-activated cytokine release from human primary T-lymphocytes: IL-10. It counts as cell-based. Conditions: 24 and 48 hours; FIG. 9. The protocol:
as §5

The next assay relates to IL-4. Briefly: CD3/CD28-activated cytokine release from human primary T-lymphocytes: IL-4. It counts as cell-based. To be noted: 24 and 48 hours; FIG. 10. The protocol: as §5
A further assay concerns P. gingivalis A7436. Briefly: Antibacterial activity: viability of P. gingivalis by Live/Dead BacLight staining and flow cytometry. The format is cell-based, Porphyromonas gingivalis. To be noted: for antibacterial capacity (percentage of dead bacteria) compared with chlorhexidine: FIG. 1, positive control chlorhexidine (CHX) 0.04%. Background: In flow cytometry, cells or beads pass a laser one at a time.

The next assay relates to IL-2. Nature of the assay: CD3/CD28-activated cytokine release from human primary T-lymphocytes: IL-2. It counts as cell-based. To be noted: 24 hour period; FIG. 8. The protocol: as §5
A further assay deals with IL-12. Briefly: LPS-activated cytokine release from human primary monocytes (xMAP Luminex): IL-12. To be noted: 24 hours. It counts as cell-based. How it is done: as §1, §4
Assay [1] concerns periodontal disease established by P. gingivalis. Nature of the assay: Rabbit periodontal disease established by P. gingivalis, topical treatment. It counts as in vivo, New-Zealand White rabbits. An excerpt:
Fifteen New-Zealand White rabbits are distributed into 3 groups: (1)
No treatment (5 animals), (2) Placebo treatment (5 animals), and (3) myristic acid treatment (5 animals). In all animals, periodontal disease is established by P. gingivalis application every-other-day over a 6-week period. At 6 weeks, P. gingivalis application is terminated and topical use of the myristic acid and placebo agents is initiated for a second 6 weeks at which time animals are sacrificed. Morphometric, radiographic, and histologic evaluations are performed. Histologic sections are stained with hematoxylin-eosin, and tartrate-resistant acid phosphatase (TRAP) for descriptive histology and osteoclast activity. In addition, osteocalcin staining is used to detect osteoblast activity.

A further assay has as its system IL-6. Nature of the assay: LPS-activated cytokine release from human primary monocytes (xMAP Luminex): IL-6. It counts as cell-based. Conditions: 24 hours. How it is done:
as §1, §4

Another assay deals with IL-1β. Briefly: LPS-activated cytokine release from human primary monocytes (xMAP Luminex): IL-1β. The format is cell-based. Conditions: 24 hours. The protocol: as §1, §2, §3

Experimental findings from US20120029078A1, “COMPOSITIONS COMPRISING MYRISTIC ACID AND USES THEREOF” (IMAGENETIX, INC., priority 2010, published 2012) are described below.

Description for P. gingivalis A7436: P. gingivalis A7436 was cultured on laced blood paromomycin agar plates and then transferred to Schaedler's broth. All cultures were grown at 37° C. under anaerobic conditions. In order to dissolve the 1-TDC and MA in an aqueous medium that can be utilized in carrying out the experiments, the following ingredients were used: ethanol (EtOH) and Methyl-β-cyclodextrin (Sigma-Aldrich, St. Louis, Mo.). More specifically, 750.0 mg of Methyl-β-cyclodextrin was dissolved in 5.0 mL of nano-pure water to get a concentration 150.0 mg/mL (MBC). The MBC solution was stored in the refrigerator at a temperature of 4° C. and was returned to room temperature before use. MA was prepared by dissolving 90.0 mg in 3.0 mL of ETOH, 2.4 mL of MBC, and 24.6 mL of SB in a sterile tube. The entire mixture was placed in a hot bath at 30° C. for 30 minutes. The final concentration of MA was 3.0 mg/mL.
2×10^7 cells were transferred to 5 mL culture tubes and treated with either 1-TDC or MA (1.0 mg/ml, 0.7 mg/mL, 0.5 mg/mL, 0.3 mg/mL, 0.1 mg/mL) or corresponding vehicle concentrations. A negative control was treated with additional Schaedler's broth. Tubes were incubated in anaerobic jars at 37° C. for several time points between 4-72 hours.
After incubation, viability of the P. gingivalis cells was assessed. 1 mL of each sample was removed and spun down. Bacteria were resuspended in 1 mL of 0.85% NaCl solution. To generate a standard curve, half of the bacteria that was not treated with vehicle or compound were heat-killed for one hour and then mixed with live cells in known proportions (0%, 25%, 50%, 75% and 100% alive). The 100% live cells were used as the negative control. To assess the viability, a fluorescent based kit was used. Live/Dead BacLight Bacterial Viability Kit (Invitrogen L7012) allows for differentiation between alive and dead bacteria at a highly accurate and sensitive way. […]
Samples were then run on the flow cytometer (FACScan). […] From these established regions, percent viability of the experimental samples were determined.

Consider `CCCCCCCCCCCCCCCCOC(=O)CCCCCCCCCCCCC` [Cetyl Myristate, cetyl myristate], for which the “monocyte-mediated MCP-1 release, inhibition” value with MCP-1 (6 hours) and in the assay with MCP-1 (24 hours) was “inhibited” each time. The “monocyte-mediated IL-8 release, inhibition” value in the assay on IL-8 is reported as “inhibited”. Besides, the “monocyte-mediated TNF-α release, inhibition (text)” value in the assay on TNF-α (6 hours) is recorded as “inhibits”; with TNF-α (24 hours, listed as Cetyl myristate), “inhibition on TNF-α continued”. Further, in the assay on IL-5, the “IL-5 release by human T cells (activation)” value is “most potent activator”. Besides, the “dose dependence of activation of T-cell IFN-γ release” value with IFN-γ (10^−5-10^−9M) is “dose-dependent activation”. Besides, the “T-lymphocyte release of IL-10 (activation)” value in the assay on IL-10 was “most potent activator”. In addition, the “IL-4 generation by human T cells (activation)” value in the assay on IL-4 is reported as “most potent compound tested”.

On to `CCCCCCCCCCCCCC(=O)O` [Myristic Acid, Myristic acid], for which the “monocyte-mediated MCP-1 release, inhibition” value in the assay with MCP-1 (24 hours) was “significantly and dose dependently inhibited”. Also, in the assay on P. gingivalis A7436, the “antibacterial capacity (percentage of dead bacteria) compared with chlorhexidine” value was “comparable level of antibacterial capacity as seen with chlorhexidine”. For the same compound, the “dose dependence of antibacterial activity against P. gingivalis” value in the assay on P. gingivalis A7436 (FIG. 2, increases dramatically at 0.1 mg/ml and higher doses (e.g., 1 mg/ml)) is reported as “dose-dependent”. Further, in the assay on IL-2, the “effect on T-lymphocyte IL-2 production” value was “activated”. Further, the “monocyte-mediated IL-12 release, inhibition” value with IL-12 was “significantly and dose dependently inhibited”. The “monocyte-mediated IL-8 release, inhibition” value in the assay on IL-8 was “significantly and dose dependently inhibited”. Also, the “monocyte-mediated TNF-α release, inhibition (text)” value in the assay with TNF-α (24 hours) is reported as “all cytokines except TNF-α”. In [1] (6 weeks), the “histomorphometric tissue and bone level vs placebo and no treatment” value is “significant changes in tissue and bone level”; the “inflammatory changes in hematoxylin-eosin stained sections” value is on record as “complete reversal of inflammatory changes”; the “reformation of soft and bone tissues lost to periodontal inflammation” value was “reform soft and bone tissues”. Besides, the “progression of gingival inflammation and bone destruction induced by P. gingivalis” value in assay [1] (6 weeks after 6 weeks of disease induction) is recorded as “stops the progression”. In addition, the osteoclastic activity entry in [1] (6 weeks, TRAP staining) was “significantly suppresses”. Further, in [1] (6 weeks, osteocalcin staining), the osteoblastic activity result is “increased osteoblastic activity”. The “activation of IFN-γ release by T-lymphocytes” value in the assay on IFN-γ (over 24 and 48 hours) was “capacity to activate IFN-γ release by T cells and this effect increased over time”. The “monocyte-mediated IL-6 release, inhibition” value in the assay with IL-6 was “significantly and dose dependently inhibited”. In addition, the “monocyte-mediated IL-1β release, inhibition” value in the assay on IL-1β is “significantly and dose dependently inhibited”.

`CCCCCCCCCCCCCCCCOC(=O)CCCCCCCCCCCCC` [Palmityl Myristate, palmityl myristate]: in the assay on TNF-α (24 hours, listed as palmityl myristate), the “monocyte-mediated TNF-α release, inhibition (text)” value is “blocked TNF-α release, however the inhibition was weaker compared to cetyl myristate”.

For the compound `CCCC/C=C\CCCCCCCC(=O)OCCCCCCCCCCCCCCCC` [Palmityl Myristoleate, palmityl myristoleate], the “monocyte-mediated TNF-α release, inhibition (text)” value in the assay on TNF-α (24 hours) was “significantly and fully inhibited”. Besides, the “effect on IFN-γ production by T-lymphocytes” value in the assay with IFN-γ (24 hour mark) and with IFN-γ (48 hour mark) was “inhibit” in each case. Also, the “monocyte-mediated IL-1β release, inhibition” value with IL-1β was “significantly and fully inhibited”.

In the case of `CCCCCCCC/C=C\CCCCCCCC(=O)OCCCCCCCCCCCCCCCC` [Palmityl Oleate, palmityl oleate], the “monocyte-mediated TNF-α release, inhibition (text)” value in the assay on TNF-α (24 hours) is “significantly and fully inhibited”. Further, the “effect on IFN-γ production by T-lymphocytes” value in the assay with IFN-γ (24 hour mark) is “inhibit”. Further, in the assay with IL-1β, the “monocyte-mediated IL-1β release, inhibition” value was “significantly and fully inhibited”.

Regarding `CCCCCCCCCCCCCC(=O)[O-].[Na+]` [sodium myristate], the “antibacterial capacity (percentage of dead bacteria) compared with chlorhexidine” value in the assay with P. gingivalis A7436 is reported as “comparable level of antibacterial capacity as seen with chlorhexidine”.
